Experiment in all cases: Disk diffusion assay, zone of inhibition
Type in all cases: cell-based
(A growth-free zone around the sample is the usual read-out of agar diffusion tests.)

Assay [1] deals with Bacillus subtilis ATCC 6633. The protocol:
(§1) Bacteria were streaked onto Tryptic Soy Agar plates and incubated overnight at 35° C. Bacteria were suspended in sterile saline to the turbidity of a 0.5 McFarland standard then swabbed onto Mueller Hinton Agar plates to create lawns. Test compounds were dissolved in DMSO at a concentration of 0.1 M, and 10 μL of each were pipetted onto 6 mm diameter glass fiber disks placed on the lawns. Plates were incubated for 20-24 hours at 35° C. after which zones of inhibition (diameters in mm) were measured for each test compound.

Assay [2] deals with Staphylococcus aureus ATCC 25923. The protocol: as §1
Assay [3] concerns Pseudomonas aeruginosa ATCC 27853. Particulars: N-arylamine derivatives; 10 μL of 0.1 M in DMSO on 6 mm disk; 20-24 hours at 35° C.; NA=No activity. The protocol:
as §1

Assay [4] has as its system Enterobacter aerogenes ATCC 13048. Particulars: N-arylamine derivatives; 10 μL of 0.1 M in DMSO on 6 mm disk; 20-24 hours at 35° C.; NA=No activity. The method, then: as §1
Setting [5] is: ATCC6633, read-out: Zone of inhibition in mm, B s, N-arylamine derivatives, 10 μL of 0.1 M in DMSO on 6 mm disk, 20-24 hours at 35° C., NA=No activity.
Where [6] appears, read: ATCC6633, read-out: Zone of inhibition in mm, B s, azomethines, 10 μL of 0.1 M in DMSO on 6 mm disk, 20-24 hours at 35° C., NA=No activity.
Where [7] appears, read: ATCC25923, read-out: Zone of inhibition in mm, S a.
Setting [8] is: ATCC6633, N-arylamine derivatives, 10 μL of 0.1 M in DMSO on 6 mm disk, 20-24 hours at 35° C., NA=No activity, read-out: Zone of inhibition in mm, B s.
Where [9] appears, read: ATCC6633, azomethines, 10 μL of 0.1 M in DMSO on 6 mm disk, 20-24 hours at 35° C., NA=No activity, read-out: Zone of inhibition in mm, B s.
[10] abbreviates: ATCC25923, N-arylamine derivatives, 10 μL of 0.1 M in DMSO on 6 mm disk, 20-24 hours at 35° C., NA=No activity, read-out: Zone of inhibition in mm, S a.

Like-named read-outs stand apart in the source and are kept apart here.

From patent US10596153B2, “Antimicrobial agents and the method of synthesizing the antimicrobial agents” (Arkansas State University—Jonesboro, priority 2016, dated 2020) come the findings set out here.

`Cc1ccc(F)cc1` [b]: the zone of inhibition at 100000 µM in assay [1] (setting [5]) amounted to 18 mm; in assay [1] (setting [6]), 8 mm; in assay [2] (setting [7]), 18 mm.
With `O=C(N[C@H](CO)[C@H](O)c1ccc([N+](=O)[O-])cc1)C(Cl)Cl` [Chloramphenicol], the “Zone of inhibition in mm, P a” value in assay [3] came to 8 mm. Further, the “Zone of inhibition in mm, E a” value in assay [4] stood at 28 mm.
`Cc1ccc(Cl)cc1` [c]: the zone of inhibition at 100000 µM stood at 18 mm in assay [1] (setting [8]), 9 mm in assay [1] (setting [9]) and 18 mm in assay [2] (setting [10]).
Take `Cc1ccccc1` [a]: the zone of inhibition at 100000 µM in assay [1] (setting [6]) came out at 8 mm; in assay [2] (setting [7]), 20 mm.
For the molecule `COc1ccc(C)cc1` [g], the zone of inhibition at 100000 µM in assay [1] (setting [5]) amounted to 14 mm; in assay [1] (setting [6]) it was 10 mm; in assay [2] (setting [7]), 15 mm.
`Cc1ccc(Br)cc1` [d]: the zone of inhibition at 100000 µM in assay [1] (setting [8]) worked out at 8 mm; in assay [1] (setting [9]), 8 mm; in assay [2] (setting [10]), 9 mm.
Regarding `Cc1ccc(Oc2ccccc2)cc1` [h], the results for the zone of inhibition at 100000 µM in assay [1] (setting [8]) and in assay [2] (setting [10]) were 12 mm and 11 mm, respectively.
As to `Cc1ccc(C)cc1` [e], the zone of inhibition at 100000 µM in assay [1] (setting [5]) is 18 mm; in assay [1] (setting [6]), 8 mm; in assay [2] (setting [7]), 17 mm.
Take `Cc1ccc(C(C)(C)C)cc1` [f]: the values for the zone of inhibition at 100000 µM in assay [1] (setting [8]), in assay [1] (setting [9]) and in assay [2] (setting [10]) were 14 mm, 8 mm and 8 mm, respectively.

A word on the zone of inhibition: it is the size of the clear area around the sample on an inoculated plate.
